Test system: L. major lysate proteins
Assay: Multitargeted bead mixture chemoproteomics, single concentration competition, proteome-wide
Type: binding
Details: for fold change / fold change relative to vehicle control: vehicle control = 1; for fold change relative to vehicle control: competition with free ligand

Nc1nc2cccc(-c3ccccc3)c2n1Cc1ccc(Cl)c(Cl)c1 [compound 3]
fold change vs vehicle control (protein LMJF.22.0730 HY[…], CONSERVED): 1.03
fold change (protein LMJF.22.1460 I/6 AUTOANTIGEN-LIKE PROTEIN): 1.02
fold change vs vehicle control (protein LMJF.22.1540 ALANYL-TRNA SYNTHETASE, PUTATIVE): 0.95
fold change vs vehicle control (protein LMJF.23.0370 […] OXIDASE SUBUNIT 10, PUTATIVE): 1.06
fold change (protein LMJF.23.0830 NA/H ANTIPORTER-LIKE PROTEIN): 1.19
fold change (protein LMJF.23.1020 HY[…], UNKNOWN FUNCTION): 0.96
fold change (protein LMJF.23.1220 T-COMPLEX PROTEIN 1, GAMMA SUBUNIT, PUTATIVE): 1.01
fold change vs vehicle control (protein LMJF.24.0140 ANKYRIN/TPR REPEAT PROTEIN): 0.99
fold change (protein LMJF.24.0280 DYNEIN INTERMEDIATE-CHAIN-LIKE PROTEIN): 0.96
fold change (protein LMJF.24.0770 MALIC ENZYME, PUTATIVE): 0.99
fold change relative to vehicle control (protein LMJF.24.1510 IGE-DEPENDENT HISTAMINE-RELEASING FACTOR, PUTATIVE): 1.23
fold change vs vehicle control (protein LMJF.24.1630, SUCCINATE DEHYDROGENASE FLAVOPROTEIN, PUTATIVE): 0.9
fold change vs vehicle control (protein LMJF.24.1840 LYSOPHOSPHOLIPASE, PUTATIVE): 1.09
fold change relative to vehicle control (protein LMJF.24.2060 TRANSKETOLASE): 1.1
fold change (protein LMJF.24.2250 FATTY-ACID DESATURASE, PUTATIVE): 0.99
fold change vs vehicle control (protein LMJF.25.0120 ELECTRON TRANSFER FLAVOPROTEIN, PUTATIVE): 0.93
fold change vs vehicle control (protein LMJF.25.0260 DYNEIN LIGHT CHAIN 1, CYTOPLASMIC, PUTATIVE): 1.01
fold change relative to vehicle control (protein LMJF.25.0910 C[…]): 1.18
fold change vs vehicle control (protein LMJF.25.1180, ATPASE BETA SUBUNIT, PUTATIVE): 1.09
fold change (protein LMJF.25.1610 HY[…], CONSERVED): 0.9
fold change (protein LMJF.25.1620 HY[…], CONSERVED): 1.16
fold change vs vehicle control (protein LMJF.26.1240 HEAT SHOCK PROTEIN 70-RELATED PROTEIN): 0.94
fold change vs vehicle control (protein LMJF.26.1710 […] OXIDASE SUBUNIT V, PUTATIVE): 1.08
fold change vs vehicle control (protein LMJF.26.1960 HY[…], CONSERVED): 0.96
fold change vs vehicle control (protein LMJF.26.2000 HY[…], CONSERVED): 1.09
fold change vs vehicle control (protein LMJF.27.0420 RIBOKINASE, PUTATIVE): 1.13
fold change vs vehicle control (protein LMJF.27.1060 CYSTEINE DESULFURASE, PUTATIVE): 1.05
fold change (protein LMJF.27.1310 ARGINYL-TRNA SYNTHETASE, PUTATIVE): 0.9
fold change vs vehicle control (protein LMJF.27.2400 HEAT SHOCK PROTEIN DNAJ, PUTATIVE): 0.99
fold change vs vehicle control (protein LMJF.28.0110 […] 3 SUBUNIT, PUTATIVE): 0.99
fold change vs vehicle control (protein LMJF.28.0930 HY[…], CONSERVED): 1.07
fold change vs vehicle control (protein LMJF.28.0950 HY[…], CONSERVED): 1.01
fold change vs vehicle control (protein LMJF.28.0980 P27 PROTEIN, PUTATIVE): 1.09
fold change vs vehicle control (protein LMJF.28.1950 X-PRO, DIPEPTIDYL-PEPTIDASE,SERINE PEPTIDASE, CLAN SC, FAMILY S15, PUTATIVE): 1.06
fold change relative to vehicle control (protein LMJF.28.2770 HEAT-SHOCK PROTEIN HSP70, PUTATIVE): 0.99
fold change (protein LMJF.29.0060 TRYPTOPHANYL-TRNA SYNTHETASE, PUTATIVE): 1.05
fold change (protein LMJF.29.0820 CYSTEINE PEPTIDASE C (CPC)): 0.91
fold change relative to vehicle control (protein LMJF.29.0850 HIGH MOBILITY GROUP PROTEIN HOMOLOG TDP-1, PUTATIVE): 1.27
fold change vs vehicle control (protein LMJF.29.1160 TRYPAREDOXIN): 0.99
fold change (protein LMJF.29.1760 PAR[…] PROTEIN 1D, PUTATIVE): 0.75
fold change vs vehicle control (protein LMJF.29.1780 D[…] PROTEIN, PUTATIVE): 1.05
fold change vs vehicle control (protein LMJF.29.2240 AMINOPEPTIDASE, PUTATIVE): 1.03
fold change (protein LMJF.29.2310 ENOYL-COA HYDRATASE/ISOMERASE-LIKE PROTEIN): 0.98
fold change (protein LMJF.29.2860 40S RIBOSOMAL PROTEIN S19-LIKE PROTEIN): 1.34
fold change vs vehicle control (protein LMJF.30.0850 SURFACE PROTEIN AMASTIN, PUTATIVE): 1.12
fold change (protein LMJF.30.1250 PYRIDOXAL KINASE, PUTATIVE): 0.82
fold change (protein LMJF.30.1940 SUCCINYL-COA:3-KETOACID-COENZYME A TRANSFERASE- LIKE PROTEIN): 1.02
fold change vs vehicle control (protein LMJF.30.3190 3-HYDROXY-3-METHYLGLUTARYL-COA REDUCTASE): 0.77
fold change vs vehicle control (protein LMJF.30.3520 S-ADENOSYL[…]): 1.03
fold change vs vehicle control (protein LMJF.31.0440 CYTOSKELETON-[…] CAP5 5, PUTATIVE): 0.97
fold change (protein LMJF.31.1130 N-ACYL-L-AMINO ACID AMIDOHYDROLASE, PUTATIVE): 0.9
fold change vs vehicle control (protein LMJF.31.1640 THIOLASE PROTEIN-LIKE PROTEIN): 1.31
fold change (protein LMJF.31.1800 AMINO ACID PERMEASE): 0.96
fold change (protein LMJF.31.2250 3,2-TRANS-ENOYL-COA ISOMERASE, MIT[…], PUTATIVE): 1
fold change vs vehicle control (protein LMJF.31.2790 ADP-RI[…], PUTATIVE): 1.03
fold change (protein LMJF.31.3130 […]-COA CARBOXYLASE BIOTINYLATED […]-LIKE PROTEIN): 0.99
fold change (protein LMJF.32.0010 HY[…], CONSERVED): 0.78
fold change vs vehicle control (protein LMJF.32.0400 ATP-DEPENDENT RNA HELICASE, PUTATIVE): 1.02
fold change vs vehicle control (protein LMJF.32.0520 PROFILIN, PUTATIVE): 1.17
fold change (protein LMJF.32.1000 […]-COMPLEX PROTEIN, PUTATIVE): 0.92
fold change vs vehicle control (protein LMJF.32.3010 HY[…], CONSERVED,LEUCINE-RICH REPEAT PROTEIN, PUTATIVE): 1.47
fold change vs vehicle control (protein LMJF.32.3870 MYOSIN XXI): 0.97
fold change vs vehicle control (protein LMJF.33.0890, HY[…], CONSERVED): 1.03
fold change vs vehicle control (protein LMJF.33.1070 HY[…], UNKNOWN FUNCTION): 1.02
fold change (protein LMJF.33.1330 CYSTEINE CONJUGATE BETA-LYASE, AMINOTRANSFERASE- LIKE PROTEIN): 1.06
fold change (protein LMJF.33.1610 PEPTIDASE M20/M25/M40, PUTATIVE): 0.91
fold change relative to vehicle control (protein LMJF.33.1630 CYCLOPHILIN 4, PUTATIVE): 0.93
fold change vs vehicle control (protein LMJF.33.2300 UDP-GLC 4'-EPIMERASE, PUTATIVE): 0.98
fold change vs vehicle control (protein LMJF.33.2390 HEAT SHOCK PROTEIN, PUTATIVE): 0.99
fold change (protein LMJF.33.2410 HY[…], CONSERVED): 1.06
fold change (protein LMJF.33.3150 40S RIBOSOMAL PROTEIN S13, PUTATIVE): 1.18
fold change (protein LMJF.34.3500 RUVB-LIKE 1 DNA HELICASE, PUTATIVE): 1.19
fold change (protein LMJF.34.3670 VACUOLAR ATP SYNTHASE CATALYTIC SUBUNIT A, PUTATIVE): 0.9
fold change (protein LMJF.34.3740 SERINE PALMITOYLTRANSFERASE-LIKE PROTEIN): 0.95
fold change (protein LMJF.34.4120 HY[…], CONSERVED): 0.82
fold change vs vehicle control (protein LMJF.34.4370 20S […] 7 SUBUNIT, (PUTATIVE)): 1.2
fold change (protein LMJF.35.0370 ATP-DEPENDENT DEAD-BOX RNA HELICASE, PUTATIVE): 1.01
fold change vs vehicle control (protein LMJF.35.1380, MIT[…], BETA SUBUNIT, PUTATIVE): 1.16
fold change vs vehicle control (protein LMJF.35.1410 THREONYL-TRNA SYNTHETASE, PUTATIVE): 1.01
fold change vs vehicle control (protein LMJF.35.1720 CYCLOPHILIN 14, PUTATIVE): 1.09
fold change (protein LMJF.35.2500 HY[…], CONSERVED): 1.26
fold change (protein LMJF.35.2730 ACYL-COA DEHYDROGENASE, PUTATIVE): 1.14
fold change relative to vehicle control (protein LMJF.35.3010 […],TRYPANOTHIONE-DEPENDENT […]): 0.92
fold change vs vehicle control (protein LMJF.35.3100 ATP-DEPENDENT RNA HELICASE, PUTATIVE): 1.01
fold change vs vehicle control (protein LMJF.35.3340 6-phosphogluconate dehydrogenase): 1.11
fold change (protein LMJF.35.3700 GIM5A PROTEIN, PUTATIVE,[…] PROTEIN): 0.85
fold change vs vehicle control (protein LMJF.35.3840, […] 2 SUBUNIT, PUTATIVE): 0.92
fold change vs vehicle control (protein LMJF.35.3860 T-COMPLEX PROTEIN 1, ETA SUBUNIT, PUTATIVE): 1
fold change (protein LMJF.35.4550 HY[…], CONSERVED): 1.56
fold change (protein LMJF.35.4770 CYCLOPHILIN 40): 0.89
fold change (protein LMJF.35.4850 […] 1 SUBUNIT, PUTATIVE): 0.85
fold change (protein LMJF.35.4860 HY[…], CONSERVED): 0.98
fold change relative to vehicle control (protein LMJF.35.5330 ISOPENTENYL-D[…]-ISOMERASE, PUTATIVE,ISOMERASE, PUTATIVE): 1.32
fold change vs vehicle control (protein LMJF.36.0180 […] 2): 1.05
fold change vs vehicle control (protein LMJF.36.0620 HY[…], CONSERVED): 1.06
fold change vs vehicle control (protein LMJF.36.0990 40S RIBOSOMAL PROTEIN S10, PUTATIVE): 1.12
fold change vs vehicle control (protein LMJF.36.2020 CHAPERONIN HSP60, MIT[…]): 0.88
fold change vs vehicle control (protein LMJF.36.3460 HY[…], CONSERVED): 1.04
fold change (protein LMJF.36.3760 60S RIBOSOMAL PROTEIN L10A, PUTATIVE): 1.19
fold change vs vehicle control (protein LMJF.36.3840 GLYCYL TRNA SYNTHETASE, PUTATIVE): 0.95
fold change vs vehicle control (protein LMJF.36.4170 OXIDOREDUCTASE, PUTATIVE): 0.93
fold change vs vehicle control (protein LMJF.36.5010 40S RIBOSOMAL PROTEIN SA, PUTATIVE): 1.04
fold change vs vehicle control (protein LMJF.36.5620 ISOLEUCYL-TRNA SYNTHETASE, PUTATIVE): 0.99
fold change vs vehicle control (protein LMJF.36.6430 PROTEIN TRANSPORT PROTEIN SEC23-LIKE PROTEIN): 1.04
fold change (protein LMJF.36.6760 HY[…], CONSERVED): 0.97
fold change vs vehicle control (protein LMJF.36.6910 T-COMPLEX PROTEIN 1, THETA SUBUNIT, PUTATIVE): 1
fold change vs vehicle control (protein LMJF.36.6940 disulfide isomerase PDI): 1.23
fold change vs vehicle control (protein LMJF.[…] […] EXOPOLYPHOSPHATASE, PUTATIVE): 0.81
